Among the data in ChEMBL document CHEMBL5370687 (ACS Med Chem Lett, 2023) are IC50 values, retold here.

Molecules are shown by their SMILES. Where only a bound is given, the exact number is not on record here.

This experiment addresses T1, Protein-glutamine gamma-glutamyltransferase (Homo sapiens, UniProt P21980).
T1 sequence (P21980 whole entry): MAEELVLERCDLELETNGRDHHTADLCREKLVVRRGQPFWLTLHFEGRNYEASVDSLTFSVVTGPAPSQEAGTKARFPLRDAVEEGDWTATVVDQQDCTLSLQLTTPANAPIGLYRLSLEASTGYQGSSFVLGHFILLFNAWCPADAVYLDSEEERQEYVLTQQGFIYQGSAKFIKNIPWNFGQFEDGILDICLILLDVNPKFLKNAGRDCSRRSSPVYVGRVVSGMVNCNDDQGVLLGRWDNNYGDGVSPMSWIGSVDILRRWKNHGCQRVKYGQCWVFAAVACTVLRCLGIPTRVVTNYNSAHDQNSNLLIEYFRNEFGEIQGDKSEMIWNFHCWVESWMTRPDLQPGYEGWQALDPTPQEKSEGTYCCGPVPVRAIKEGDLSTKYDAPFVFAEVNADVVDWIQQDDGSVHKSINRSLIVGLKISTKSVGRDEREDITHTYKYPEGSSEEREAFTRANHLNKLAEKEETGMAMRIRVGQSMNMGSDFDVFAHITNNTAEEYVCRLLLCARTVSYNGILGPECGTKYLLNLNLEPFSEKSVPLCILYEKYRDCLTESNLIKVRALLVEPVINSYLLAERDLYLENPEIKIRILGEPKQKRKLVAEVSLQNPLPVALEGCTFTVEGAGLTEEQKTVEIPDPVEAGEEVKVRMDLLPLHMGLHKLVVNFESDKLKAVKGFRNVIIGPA
Kind of experiment: Inhibition of human recombinant His6-tagged TG2 expressed in insect cells assessed as reduction in incorporation of dansylcadaverine into N,N-dimethylcasein measured for 30 mins by fluorescence assay. Also on record: species or system Insect cell.
Regarding `CNC(=O)C(=O)CC[C@H](NC(=O)c1cc2cccc(F)c2s1)C(=O)Nc1cccn(CC(=O)NC2C3CC4CC(C3)CC2C4)c1=O` (stereo not given in full), the IC50 (in general, the point on the concentration scale where inhibition reaches its midpoint) was at most 25 nM.
As to `CNC(=O)C(=O)CC[C@H](NC(=O)c1cc2cc(Br)ccc2s1)C(=O)Nc1cccn(CC(=O)NC2C3CC4CC(C3)CC2C4)c1=O` (stereo not given in full), the IC50 was at most 25 nM.
As for `CNC(=O)C(=O)CC[C@H](NC(=O)c1cc2ccccc2o1)C(=O)Nc1cccn(CC(=O)NC2C3CC4CC(C3)CC2C4)c1=O` (stereo not given in full), the figure is at most 25 nM; as for `CNC(=O)C(=O)CC[C@H](NC(=O)C1Cc2ccccc2C1)C(=O)Nc1cccn(CC(=O)NC2C3CC4CC(C3)CC2C4)c1=O` (stereo not given in full), at most 25 nM; as for `CNC(=O)C(=O)CC[C@H](NC(=O)c1cc2ccccc2s1)C(=O)Nc1cccn(CC(=O)NC2C3CC4CC(C3)CC2C4)c1=O` (stereo not given in full), at most 25 nM.
As for `CNC(=O)C(=O)CC[C@H](NC(=O)c1cc2c(F)c(F)ccc2[nH]1)C(=O)Nc1cccn(CC(=O)NC2C3CC4CC(C3)CC2C4)c1=O` (stereo not given in full), the figure is at most 25 nM.
The value for `CNC(=O)C(=O)CC[C@H](NC(=O)c1oc2ccccc2c1Cl)C(=O)Nc1cccn(CC(=O)NC2C3CC4CC(C3)CC2C4)c1=O` (stereo not given in full) was at most 25 nM; that for `CNC(=O)C(=O)CC[C@H](NC(=O)c1cc2c(Br)cccc2o1)C(=O)Nc1cccn(CC(=O)NC2C3CC4CC(C3)CC2C4)c1=O` (stereo not given in full) was at most 25 nM.
As to `CNC(=O)C(=O)CC[C@H](NC(=O)c1cc2ccccc2[nH]1)C(=O)Nc1cccn(CC(=O)NC2C3CC4CC(C3)CC2C4)c1=O` (stereo not given in full), the IC50 is at most 25 nM.
The value for `CNC(=O)C(=O)CC[C@H](NC(=O)c1[nH]c2ccccc2c1C)C(=O)Nc1cccn(CC(=O)NC2C3CC4CC(C3)CC2C4)c1=O` (stereo not given in full) was under 250 nM.
